Data published in paper PMC10296036, “Inhibitory Potential of Synthetic Amino Acid Derivatives against Digestive Enzymes as Promising Hypoglycemic and Anti-Obesity Agents” (Biomolecules, 2023).
Where “and” joins values, the source holds several entries; their conditions need not be identical. Equal entries are not always repeated. Marks after values point to notes of the source that are not given here.

Columns and labels:
[1] = tested on: α-glucosidase; assay: Kinetic parameters and Lineweaver-Burk analysis, α-glucosidase; type: biochemical; conditions: for Inhibition mechanism on α-glucosidase: from Km, Vmax and Lineweaver-Burk plots; for Vmax (α-glucosidase in presence of inhibitor) / Slope (Lineweaver-Burk, α-glucosidase): inhibitor concentration: acarbose 387, PPC84 870, PPC89 675, PPC101 532 µM; for Vmax (α-glucosidase in presence of inhibitor): no inhibitor Vmax 62.42 ± 1.14; for Slope (Lineweaver-Burk, α-glucosidase): no inhibitor slope 2.93
Description: [20] with some modifications. […] The reaction was stopped in an ice bath. All enzyme reactions were carried out in triplicate. […] Kinetic parameters were determined using the same experimental conditions as described above for each enzyme. […] The enzyme concentrations were maintained as described above. […] The absorbance values were converted into product concentration (μmol/L) using standard curves of glucose (α-amylase) and p-nitrophenol (pancreatic lipase and α-glucosidase). The value of the initial velocity (v0) of enzymatic reactions was estimated to create the “v0 versus substrate concentration” graph. Kinetic constants (Km and Vmax) and slope were calculated, and the inhibition model was verified using Lineweaver-Burk plots.

[2] = target: T1, porcine pancreatic α-amylase (Sus scrofa, UniProt P00690); assay: Pancreatic α-amylase inhibition assay (I% and IC50); type: biochemical; conditions: for IC50: mean ± S.E.M., n = 3, starch substrate, 37 °C, pH 7.0
T1 construct: purchased Sigma-Aldrich
T1 sequence (P00690 16-511): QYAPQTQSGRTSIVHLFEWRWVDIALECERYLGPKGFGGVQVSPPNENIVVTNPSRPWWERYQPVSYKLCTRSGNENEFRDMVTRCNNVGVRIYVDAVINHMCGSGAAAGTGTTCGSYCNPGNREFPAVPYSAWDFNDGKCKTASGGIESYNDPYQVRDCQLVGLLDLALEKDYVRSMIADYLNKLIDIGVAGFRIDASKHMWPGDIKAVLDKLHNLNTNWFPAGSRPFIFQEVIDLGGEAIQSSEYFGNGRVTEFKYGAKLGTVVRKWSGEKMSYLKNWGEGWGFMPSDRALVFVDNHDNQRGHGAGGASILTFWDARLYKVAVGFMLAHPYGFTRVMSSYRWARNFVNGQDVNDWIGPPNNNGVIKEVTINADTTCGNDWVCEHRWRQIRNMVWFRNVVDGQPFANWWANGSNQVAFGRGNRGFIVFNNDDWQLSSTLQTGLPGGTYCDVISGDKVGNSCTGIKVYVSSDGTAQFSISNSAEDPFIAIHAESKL
Description: (§1) The pancreatic α-amylase inhibition assay was carried out according to Freitas et al. with some modifications. The porcine pancreatic α-amylase (1 mg/mL) was incubated in 50 mM Tris-HCl buffer (pH 7.0) containing 10 mM CaCl2 and 1% starch. […] Afterward, microplates were pre-incubated for 10 min in a water bath at 37 °C. […] The reaction was stopped using an ice bath. All reactions were carried out in triplicate.

[3] = target: T1, porcine pancreatic α-amylase; assay: Kinetic parameters and Lineweaver-Burk analysis, pancreatic α-amylase; type: biochemical; conditions: for Inhibition mechanism on pancreatic α-amylase: from Km, Vmax and Lineweaver-Burk plots; for Vmax (pancreatic α-amylase in presence of inhibitor) / Slope (Lineweaver-Burk, pancreatic α-amylase): inhibitor concentration: acarbose 387, PPC80 730, PPC82 795, PPC84 870, PPC89 675, PPC101 532 µM; for Vmax (pancreatic α-amylase in presence of inhibitor): no inhibitor Vmax 100.70 ± 0.34; for Slope (Lineweaver-Burk, pancreatic α-amylase): no inhibitor slope 0.59
Description: as §1
(§2) Kinetic parameters were determined using the same experimental conditions as described above for each enzyme. […] The enzyme concentrations were maintained as described above. […] The absorbance values were converted into product concentration (µmol/L) using standard curves of glucose (α-amylase) and p-nitrophenol (pancreatic lipase and α-glucosidase). The value of the initial velocity (v0) of enzymatic reactions was estimated to create the “v0 versus substrate concentration” graph. Kinetic constants (Km and Vmax) and slope were calculated, and the inhibition model was verified using Lineweaver–Burk plots.

[4] = target: T2, porcine pancreatic lipase (Sus scrofa, UniProt P00591); assay: Pancreatic lipase inhibition assay (I% and IC50); type: biochemical; conditions: for Inhibitory action on pancreatic lipase (in words): tested concentration range; for IC50: mean ± S.E.M., n = 3, substrate p-nitrophenol palmitate, 37 °C, pH 8.0
T2 construct: purchased Sigma-Aldrich
T2 sequence (P00591 1-450): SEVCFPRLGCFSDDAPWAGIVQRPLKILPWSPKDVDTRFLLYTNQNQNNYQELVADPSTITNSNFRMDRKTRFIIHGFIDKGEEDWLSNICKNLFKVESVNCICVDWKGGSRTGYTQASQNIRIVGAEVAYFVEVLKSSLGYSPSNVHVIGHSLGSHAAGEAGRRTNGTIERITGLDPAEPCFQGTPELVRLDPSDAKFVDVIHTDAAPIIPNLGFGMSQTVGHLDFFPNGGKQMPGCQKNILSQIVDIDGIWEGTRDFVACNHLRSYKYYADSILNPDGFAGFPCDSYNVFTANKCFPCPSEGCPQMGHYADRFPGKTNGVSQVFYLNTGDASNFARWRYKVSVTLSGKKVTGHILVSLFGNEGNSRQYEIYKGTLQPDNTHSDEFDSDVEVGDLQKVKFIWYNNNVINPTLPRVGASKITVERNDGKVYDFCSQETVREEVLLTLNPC
Description: (§3) The pancreatic lipase inhibition assay was performed according to Santos et al. with some modifications. The porcine pancreatic lipase (10 g/L) was incubated in 50 mmol/L Tris-HCl buffer (pH 8.0) containing 10 mM CaCl2 and 25 mM NaCl. The p-nitrophenol palmitate substrate (8 mM) was dissolved in 0.5% w/v Triton-X 100. […] All reactions were carried out in triplicate.

[5] = tested on: α-glucosidase; assay: α-Glucosidase inhibition assay (I% and IC50); conditions: for Inhibitory action against α-glucosidase (in words): tested concentration range
[6] = target: T2, porcine pancreatic lipase; assay: Kinetic parameters and Lineweaver-Burk analysis, pancreatic lipase; type: biochemical; conditions: for Inhibition mechanism on pancreatic lipase: from Km, Vmax and Lineweaver-Burk plots; for Vmax (pancreatic lipase in presence of inhibitor) / Slope (Lineweaver-Burk, pancreatic lipase): inhibitor concentration: orlistat 101 µM, PPC80 146 µM, PPC82 159 µM, PPC84 174 µM; for Vmax (pancreatic lipase in presence of inhibitor): no inhibitor Vmax 68.65 ± 0.41; for Slope (Lineweaver-Burk, pancreatic lipase): no inhibitor slope 2.77
Description: as §3, §2

[7] = target: T2, porcine pancreatic lipase; parameters: method as in PMID 12771334; conditions: 100 mg/mL; cited from earlier work

| Compound | Inhibition mechanism on α-glucosidase [1] | Slope (Lineweaver-Burk, α-glucosidase) [1] [min⁻¹] | IC50 [2] [µM] | Inhibition mechanism on pancreatic α-amylase [3] | Vmax (pancreatic α-amylase in presence of inhibitor) [3] | Slope (Lineweaver-Burk, pancreatic α-amylase) [3] [min⁻¹] | Inhibition mechanism on pancreatic lipase [6] | Slope (Lineweaver-Burk, pancreatic lipase) [6] [min⁻¹] | IC50 [4] [µM] | Vmax (α-glucosidase in presence of inhibitor) [1] | Vmax (pancreatic lipase in presence of inhibitor) [6] | other results |
| --- | --- | --- | --- | --- | --- | --- | --- | --- | --- | --- | --- | --- |
| CC[C@H](C)[C@H](NC(=O)OC(C)(C)C)C(=O)NCCCN [PPC84] | competitive inhibitors | 4.29 | 493 ± 11 | non-competitive or mixed inhibition mechanism | 94.35 ± 0.51 µM/min | 0.80 | mixed or non-competitive inhibition mechanism | 3.19 | 1020 ± 20.3 | 62.90 ± 0.60 µM/min and 62.90 ± 0.60 ^a µM/min | 62.76 ± 0.3 µM/min and 62.76 ± 0.35 µM/min | inhibition at 870 µM ([2]; 870 µM): ~74%; inhibition at 1392 µM ([4]; 1392 µM, read-out: Inhibitory effect on pancreatic lipase activity): ~62%; Inhibition of α-glucosidase ([5]; 435 µM): ~66% |
| C[C@H]1O[C@H](O[C@H]2[C@H](O)[C@@H](O)[C@@H](O[C@H]3[C@H](O)[C@@H](O)C(O)O[C@@H]3CO)O[C@@H]2CO)[C@H](O)[C@@H](O)[C@@H]1N[C@H]1C=C(CO)[C@@H](O)[C@H](O)[C@H]1O (some centres unmarked) [Acarbose, acarbose, reference compound] |  |  |  |  | 100.30 ± 0.89 ^a µM/min | 0.66 |  |  |  |  |  | inhibition at 620 µM ([2]; 620 µM): ~86% |
| CCCCCCCCNC(=O)[C@@H](NC(=O)OC(C)(C)C)[C@@H](C)CC [PPC80] |  |  | 276 ± 5.21 | non-competitive or mixed inhibition mechanism | 91.75 ± 0.48 µM/min | 0.89 | competitive mechanism | 4.65 | 475 ± 8.25 |  | 68.82 ± 0.57 µM/min and 68.82 ± 0.57 ^a µM/min | inhibition at 730 µM ([2]; 730 µM): ~93%; inhibition at 584 µM ([4]; 584 µM, read-out: Inhibitory effect on pancreatic lipase activity): ~65%; Inhibitory action against α-glucosidase (in words) [5]: did not show inhibitory action |
| CCCCCCCCCCC[C@@H](C[C@@H]1OC(=O)[C@H]1CCCCCC)OC(=O)[C@H](CC(C)C)NC=O [Orlistat, orlistat, reference compound] |  |  |  |  |  |  |  | 4.10 |  |  | 68.34 ± 0.40 µM/min and 68.34 ± 0.40 ^a µM/min | inhibition at 807 µM ([4]; 807 µM, read-out: Inhibitory effect on pancreatic lipase activity): 60% |
| Polylysine |  |  |  |  |  |  |  |  |  |  |  | Inhibition of porcine pancreatic lipase activity [7]: 80% |

More lines, main results first:

| Inhibition mechanism on α-glucosidase [1] | Slope (Lineweaver-Burk, α-glucosidase) [1] [min⁻¹] | IC50 [2] [µM] | Inhibition mechanism on pancreatic α-amylase [3] | Vmax (pancreatic α-amylase in presence of inhibitor) [3] | Slope (Lineweaver-Burk, pancreatic α-amylase) [3] [min⁻¹] | Inhibition mechanism on pancreatic lipase [6] | Slope (Lineweaver-Burk, pancreatic lipase) [6] [min⁻¹] | IC50 [4] [µM] | Compound | Vmax (α-glucosidase in presence of inhibitor) [1] | Vmax (pancreatic lipase in presence of inhibitor) [6] | other results |
| --- | --- | --- | --- | --- | --- | --- | --- | --- | --- | --- | --- | --- |
| competitive inhibitors | 4.94 | 162 ± 1.73 | competitive-type inhibition mechanism | 100.00 ± 1.55 ^a µM/min | 0.70 |  |  |  | CCCCCCCCCCCCNCCCCNC(=O)[C@@H](NC(=O)OC(C)(C)C)[C@@H](C)CC [PPC101] | 63.09 ± 1.45 µM/min and 63.09 ± 1.45 ^a µM/min |  | inhibition at 532 µM ([2]; 532 µM): ~86%; Inhibitory action on pancreatic lipase (in words) [4]: did not show inhibitory action; Inhibition of α-glucosidase ([5]; 67 µM): ~64%; IC50 ([5]; read-out: IC50 α-Glucosidase, mean ± S.E.M., n = 3, substrate p-nitrophenyl-α-D-glucopyranoside, 37 °C, pH 7.0): 51 ± 1.73 µM |
|  |  | 519 ± 20 | competitive-type inhibition mechanism | 99.70 ± 1.20 ^a µM/min | 0.72 | competitive mechanism | 5.79 | 167 ± 6.25 | CCCCCCNC(=O)[C@@H](NC(=O)OC(C)(C)C)[C@@H](C)CC [PPC82] |  | 69.13 ± 0.57 µM/min and 69.13 ± 0.57 ^a µM/min | inhibition at 1590 µM ([2]; 1590 µM): ~94%; inhibition at 477 µM ([4]; 477 µM, read-out: Inhibitory effect on pancreatic lipase activity): ~86%; Inhibitory action against α-glucosidase (in words) [5]: did not show inhibitory action |
| competitive inhibitors | 4.11 | 171 ± 13.6 | competitive-type inhibition mechanism | 99.73 ± 1.77 ^a µM/min | 0.76 |  |  |  | CCCCCCCCCCNC(=O)[C@@H](NC(=O)OC(C)(C)C)[C@@H](C)CC [PPC89] | 62.30 ± 1.33 µM/min and 62.30 ± 1.33 ^a µM/min |  | Inhibitory effect on pancreatic α-amylase (in words) ([2]; 405 µM, compared with acarbose 620 µM): same inhibitory effect as acarbose; inhibition at 675 µM ([2]; 675 µM): ~90%; Inhibitory action on pancreatic lipase (in words) [4]: did not show inhibitory action; Inhibition of α-glucosidase ([5]; 674 µM): ~78% |
